Experiments:
Experiment in all cases: relative viability (nuclei count vs DMSO), 5 days (fraction); higher = more cells survive
Cediranib + Bortezomib = compound: COc1cc2c(Oc3ccc4[nH]c(C)cc4c3F)ncnc2cc1OCCCN1CCCC1 [Cediranib] + CC(C)C[C@H](NC(=O)[C@H](Cc1ccccc1)NC(=O)c1cnccn1)B(O)O [Bortezomib] (partner 0.002 µM)
Procedure, shortened: (§1)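 For relative viability, nuclei counts in treated wells were divided by those in vehicle wells. Lung cancer cell lines had been pin-tool dosed in 1536-well plates the day after seeding and cultured for 5 days, then fixed and stained in one step (final 0.05% Triton X-100, 1% formaldehyde, 1 ug/ml Hoechst) and imaged at 4×. Doses were one drug alone or a fixed anchor-drug dose plus five library-drug doses (not always all listed) in √10 steps, and values are duplicate-plate medians.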

Decitabine + Lapatinib = compound: Nc1ncn([C@H]2C[C@H](O)[C@@H](CO)O2)c(=O)n1 [Decitabine] + CS(=O)(=O)CCNCc1ccc(-c2ccc3ncnc(Nc4ccc(OCc5cccc(F)c5)c(Cl)c4)c3c2)o1 [Lapatinib] (partner 2 µM)
Procedure, shortened: as §1

Decitabine + Pemetrexed = compound: Nc1ncn([C@H]2C[C@H](O)[C@@H](CO)O2)c(=O)n1 [Decitabine] + Nc1nc2[nH]cc(CCc3ccc(C(=O)N[C@@H](CCC(=O)O)C(=O)O)cc3)c2c(=O)[nH]1 [Pemetrexed] (partner 0.2 µM)
Procedure, shortened: as §1

[1] = compound: O=C(C[C@H]1NCCC[C@@H]1O)Cn1cnc2cc(Br)c(Cl)cc2c1=O (racemic) [Halofuginone] + CC1(C)CCC(c2ccc(Cl)cc2)=C(CN2CCN(c3ccc(C(=O)NS(=O)(=O)c4ccc(N[C@H](CCN5CCOCC5)CSc5ccccc5)c(S(=O)(=O)C(F)(F)F)c4)cc3)CC2)C1 [Navitoclax] (partner 0.5 µM)
Procedure, shortened: as §1

| Cell Line | relative viability (Cediranib + Bortezomib; first compound 0.04 µM) | relative viability (Cediranib + Bortezomib; first compound 0.1265 µM) | relative viability (Cediranib + Bortezomib; first compound 0.4 µM) | relative viability (Cediranib + Bortezomib; first compound 1.265 µM) | relative viability (Cediranib + Bortezomib; first compound 4 µM) | relative viability (Decitabine + Lapatinib; first compound 0.04 µM) | relative viability (Decitabine + Lapatinib; first compound 0.1265 µM) | relative viability (Decitabine + Lapatinib; first compound 0.4 µM) | relative viability (Decitabine + Lapatinib; first compound 1.265 µM) | relative viability (Decitabine + Lapatinib; first compound 4 µM) | relative viability (Decitabine + Pemetrexed; first compound 0.04 µM) | relative viability (Decitabine + Pemetrexed; first compound 0.1265 µM) | relative viability (Decitabine + Pemetrexed; first compound 0.4 µM) | relative viability (Decitabine + Pemetrexed; first compound 1.265 µM) | relative viability (Decitabine + Pemetrexed; first compound 4 µM) | relative viability ([1]; first compound 0.001 µM) | relative viability ([1]; first compound 0.003162 µM) | relative viability ([1]; first compound 0.01 µM) | relative viability ([1]; first compound 0.03162 µM) | relative viability ([1]; first compound 0.1 µM) |
| --- | --- | --- | --- | --- | --- | --- | --- | --- | --- | --- | --- | --- | --- | --- | --- | --- | --- | --- | --- | --- |
| NCI-H1651 | 0.972 | 0.87 | 0.915 | 0.914 | 0.894 | 0.799 | 0.977 | 0.708 | 0.676 | 0.747 | 0.543 | 0.43 | 0.434 | 0.331 | 0.278 | 1.04 | 1.15 | 1.12 | 0.761 | 0.267 |
| NCI-H1666 | 0.9 | 0.607 | 0.852 | 0.815 | 0.836 | 0.622 | 0.66 | 0.488 | 0.56 | 0.476 | 0.874 | 0.79 | 0.712 | 0.641 | 0.504 | 1.1 | 0.885 | 0.962 | 1.01 | 0.419 |
| NCI-H1734 | 0.831 | 0.814 | 0.806 | 0.837 | 1.24 | 0.727 | 0.91 | 0.635 | 0.449 | 0.38 | 0.345 | 0.323 | 0.293 | 0.262 | 0.284 | 0.825 | 0.961 | 0.799 | 0.762 | 0.378 |
| NCI-H1755 | 0.971 | 0.925 | 0.878 | 0.991 | 0.958 | 1.02 | 0.991 | 0.836 | 0.573 | 0.481 | 0.477 | 0.376 | 0.406 | 0.419 | 0.365 | 0.958 | 1.01 | 0.995 | 1.01 | 0.596 |
| NCI-H1792 | 1.07 | 1.14 | 0.953 | 0.955 | 0.762 | 0.851 | 0.94 | 0.806 | 0.564 | 0.53 | 0.715 | 0.894 | 0.587 | 0.309 | 0.255 | 0.557 | 0.671 | 0.783 | 0.664 | 0.654 |
| NCI-H1915 | 0.989 | 0.914 | 0.958 | 0.949 | 0.984 | 0.608 | 0.33 | 0.257 | 0.189 | 0.219 | 0.274 | 0.225 | 0.222 | 0.191 | 0.176 | 0.776 | 0.785 | 0.8 | 0.756 | 0.771 |
| NCI-H1975 | 0.423 | 0.479 | 0.326 | 0.432 | 0.345 | 0.538 | 0.456 | 0.364 | 0.327 | 0.29 | 0.247 | 0.205 | 0.182 | 0.209 | 0.188 | 1.2 | 1.08 | 1.1 | 0.554 | 0.205 |
| NCI-H1993 | 1.07 | 1.32 | 1.08 | 1.07 | 1.05 | 0.837 | 0.774 | 0.8 | 0.731 | 0.725 | 0.542 | 0.583 | 0.607 | 0.506 | 0.403 | 1.04 | 0.875 | 1.04 | 0.874 | 0.668 |
| NCI-H2009 | 0.934 | 0.246 | 1.04 | 0.943 | 1.12 | 0.8 | 0.599 | 0.225 | 0.268 | 0.276 | 0.902 | 0.727 | 0.439 | 0.357 | 0.341 | 1.22 | 1.13 | 1.09 | 1.02 | 0.67 |
| NCI-H2023 | 1.04 | 0.447 | 0.897 | 0.849 | 1.02 | 0.55 | 0.519 | 0.125 | 0.231 | 0.157 | 0.14 | 0.175 | 0.144 | 0.126 | 0.115 | 1.02 | 0.986 | 0.926 | 0.577 | 0.15 |
| NCI-H2085 | 1.1 | 1.05 | 0.956 | 0.97 | 0.954 | 0.628 | 0.646 | 0.446 | 0.494 | 0.445 | 0.782 | 0.807 | 0.511 | 0.513 | 0.364 | 1.1 | 1.25 | 1.03 | 1.02 | 0.74 |
| NCI-H2087 | 0.849 | 0.739 | 0.775 | 0.722 | 0.697 | 0.774 | 0.637 | 0.457 | 0.346 | 0.37 | 0.573 | 0.49 | 0.451 | 0.291 | 0.267 | 1.01 | 1.09 | 0.94 | 0.799 | 0.682 |
| NCI-H2126 | 1.14 | 1.2 | 1.09 | 0.963 | 1.11 | 0.749 | 0.781 | 0.472 | 0.564 | 0.544 | 0.68 | 0.648 | 0.391 | 0.453 | 0.341 | 0.87 | 0.822 | 0.824 | 0.824 | 0.831 |
| NCI-H2228 | 1.16 | 1.09 | 0.991 | 1.35 | 1.14 | 0.595 | 0.727 | 0.489 | 0.282 | 0.209 | 0.232 | 0.208 | 0.179 | 0.166 | 0.163 | 0.976 | 0.857 | 0.879 | 0.228 | 0.126 |
| NCI-H2347 | 1.09 | 0.819 | 0.93 | 1.02 | 0.96 | 0.895 | 0.938 | 0.793 | 0.548 | 0.633 | 0.401 | 0.396 | 0.382 | 0.366 | 0.386 | 0.814 | 0.838 | 0.859 | 0.845 | 0.589 |
| NCI-H2405 | 1.05 | 0.475 | 0.982 | 0.894 | 0.983 | 0.942 | 0.904 | 0.679 | 0.553 | 0.434 | 0.851 | 0.998 | 0.787 | 0.632 | 0.524 | 0.986 | 0.855 | 0.878 | 0.784 | 0.542 |

From the supplement of paper PMC10307832
